According to PMC9503024, “Structure and Biological Properties of Ribosome-Inactivating Proteins and Lectins from Elder (Sambucus nigra L.) Leaves” (Toxins, 2022):

Experiments:
Conditions in all cases: human erythrocytes; room temperature, 1 h; serial dilutions
[1] = target: nigrin l (Sambucus nigra, UniProt Q8GT32)
[2] = target: SNAld (Sambucus nigra, UniProt Q8GTA6)
[3] = target: SNAlm (Sambucus nigra, UniProt Q8GTA5)
SNAlm, sequence (Q8GTA5 57-316 limits assumed): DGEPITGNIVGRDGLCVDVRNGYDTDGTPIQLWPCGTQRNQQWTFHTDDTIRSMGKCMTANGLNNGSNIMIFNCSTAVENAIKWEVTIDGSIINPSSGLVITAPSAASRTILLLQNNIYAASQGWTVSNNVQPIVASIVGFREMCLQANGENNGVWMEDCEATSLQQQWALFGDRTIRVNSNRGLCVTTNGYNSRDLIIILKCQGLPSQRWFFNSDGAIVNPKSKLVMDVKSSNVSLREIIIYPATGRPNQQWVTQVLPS

nigrin l, sequence (Q8GT32 26-282 limits assumed): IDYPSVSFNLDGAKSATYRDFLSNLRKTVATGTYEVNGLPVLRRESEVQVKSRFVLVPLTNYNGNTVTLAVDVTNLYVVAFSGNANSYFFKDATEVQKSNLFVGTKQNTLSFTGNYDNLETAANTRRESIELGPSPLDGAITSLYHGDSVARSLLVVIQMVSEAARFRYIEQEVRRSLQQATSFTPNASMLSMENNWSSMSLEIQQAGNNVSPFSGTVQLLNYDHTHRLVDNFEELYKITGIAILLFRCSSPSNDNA
nigrin l, sequence (Q8GT32 298-563 limits assumed): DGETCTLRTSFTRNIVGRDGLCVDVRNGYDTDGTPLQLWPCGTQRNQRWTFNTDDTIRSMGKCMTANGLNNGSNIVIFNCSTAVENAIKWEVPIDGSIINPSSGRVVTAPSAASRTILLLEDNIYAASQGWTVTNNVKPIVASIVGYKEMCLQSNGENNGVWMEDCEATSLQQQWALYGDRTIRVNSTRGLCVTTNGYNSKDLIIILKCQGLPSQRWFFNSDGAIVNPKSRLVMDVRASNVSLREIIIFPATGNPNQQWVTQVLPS
SNAld, sequence (Q8GTA6 entry or part of it): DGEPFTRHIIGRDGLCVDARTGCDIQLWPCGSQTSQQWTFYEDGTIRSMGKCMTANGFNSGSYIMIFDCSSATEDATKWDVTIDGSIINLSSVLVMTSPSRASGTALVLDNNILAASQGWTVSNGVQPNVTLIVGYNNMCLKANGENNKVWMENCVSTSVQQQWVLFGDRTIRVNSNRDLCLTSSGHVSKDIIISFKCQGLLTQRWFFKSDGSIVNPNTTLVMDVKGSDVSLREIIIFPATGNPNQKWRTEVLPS

## OC[C@H]1O[C@@H](O[C@H]2[C@H](O)[C@@H](O)C(O)O[C@@H]2CO)[C@H](O)[C@@H](O)[C@H]1O (stereo partly drawn) [Lactose, β-D-galactopyranosyl-(1→4)-D-glucose]
[1]
  Nigrin l: 12.5 mM
[2]
  SNAld: 25 mM
[3]
  SNAlm: 1.56 mM

## OC[C@H]1OC(O)[C@H](O)[C@@H](O)[C@H]1O (stereo partly drawn) [D-galactose]
[1]
  Nigrin l: 50 mM
[2]
  SNAld: 100 mM
[3]
  SNAlm: 6.25 mM
